According to patent US20250270648A1, “MOLECULAR SIGNATURE FOR ASSESSING THE RESPONSIVENESS OF CANCER TO MITOCHONDRIA-TARGETED ANTIOXIDANTS” (UNIVERSITÉ CATHOLIQUE DE LOUVAIN, priority 2021, published 2025):

Key:
MDA-MB-231 cells [1] = assay: Migration towards 0.5% serum, chemotaxis chamber; type: cell-based, human; details: indicated doses of cisplatin + 100 nM MitoQ
Procedure: (§1) Previous to migration and invasion assays, cells were pretreated with the indicated amounts of drugs for 16 h, and left to recover for 6 h in full culture medium. Migration assays were performed in a NeuroProbe® standard 48-well chemotaxis chamber according to manufacturer's instructions. Briefly, the bottom chamber was filled with DMEM containing 0.5% serum as a chemo-attractant. Fifty thousand cells were seeded in the upper chamber in the same medium but without serum ±MitoQ where indicated, and allowed to migrate overnight through an 8-μm pore-size polycarbonate membrane. A similar stimulation protocol was used for invasion assays, with the difference of using Matrigel-coated transwells (Corning®). With MCF7 cells, membranes were previously incubated for 30 min with a solution of Vitronectin 10 μg/ml (Sigma-Aldrich®, #SRP3186). Migrated/invaded cells were fixed and stained with 100 μl of a 0.23% crystal violet solution (Sigma-Aldrich®, #C0775) for 10 min before counting on a SpectraMax™ i3 spectrophotometer equipped with a MiniMax imaging cytometer, using the SoftMax Pro software. Data were normalized to vehicle-treated cells (control).

MCF7 cells = assay: Migration towards 0.5% serum, chemotaxis chamber; type: cell-based, human; details: 0.1 μg/mL DXR + 100 nM MitoQ
Procedure: as §1

4T1 cells = assay: Migration towards 0.5% serum, chemotaxis chamber; type: cell-based, mouse
Procedure: as §1

MDA-MB-436 cells = assay: Western blotting (EMT proteins); type: cell-based, human; details: MitoQ 500 nM, 48 h
Procedure: For western blotting (WB), whole-protein extracts from MDA-MB-231, SkBr3 and MDA-MB-436 cells were prepared using RIPA buffer (50 mM Tris pH 7.4, 150 mM NaCl, 1% Triton-X-100, 0.05% sodium deoxycholate, 1 mM EDTA, 0.1% SDS, protease inhibitor cocktail and PhosSTOP Phosphatase Inhibitor Cocktail (Roche®)), centrifuged at 10,000×g for 10 min, and quantified using the Bio-Rad® Protein Assay. Proteins (50 μg for MDA-MB-231 and 100 μg for SkBr3 and MDA-MB-436 cells) were loaded into each lane of a 10-12% polyacrylamide gel in the presence of SDS, and were allowed to separate at 120 V for 90 min. The transfer of proteins onto nitrocellulose membranes was performed using an iBlot 2 Dry Blotting System (Thermo Fisher Scientific®) with the 7 min P0 program. Membranes were then blocked using 5% (w/v) powdered milk for 1 h, and incubated overnight at 4° C. with a primary antibody (Table 4).
β-actin served as a loading control. Immunodetection was performed at room temperature for 1 h using as secondary antibodies a horseradish peroxidase-conjugated goat anti-rabbit (Jackson®, Cat #111-035-003) and goat anti-mouse (Jackson®, Cat #115-035-003) in PBS-Tween containing 5% (w/v) milk or BSA. Detection was performed with ECL reagent (Amersham®, Cat #RPN2209), and protein bands were visualized and captured using ECL imager 600 (Amersham®). They were analyzed using the Image J software (Java).

[2] = system: human MCF7 breast cancer cells; assay: Cell viability, CellTiter-Glo; type: cell-based; details: increasing doses of DXR ±100 nM MitoQ, 48 h
Procedure: Cells were plated in 96-well plates and left to adhere for 16 hours. In order to avoid reaching full confluence at the endpoint, starting cell count was defined according to doubling time and the duration of the experiment. Following adhesion, cells were treated with the indicated compounds for 48 h, after which staining was done with a CellTiter-Glo Luminescent Cell Viability assay (Promega®, catalogue #G7570), according to supplier's instructions. This method is based on the quantification of intracellular ATP levels.

[3] = system: MDA-MB-231 human breast cancer cells; assay: Mitochondrial superoxide, EPR with MitoTEMPO-H ±PEG-SOD2; type: cell-based; details: MitoQ 100 nM, 48 h
Procedure: (§2) Mitochondrial superoxide levels were determined using electron paramagnetic resonance (EPR) with MitoTEMPO-H as a specific mitochondrial superoxide probe ±PEG-SOD2 to specifically assign signals to mitochondrial superoxide. EPR measurements were performed using a Bruker EMX-Plus spectrometer, operating in X-band (9.85 GHz) and equipped with a PremiumX ultra low noise microwave bridge and a SHQ high sensitivity resonator. Typical settings were: microwave power: 20 mW; attenuation: 10 dB; modulation frequency: 100 kHz; modulation amplitude: 0.1 mT; time constant: 20.48 ms; conversion time: 22.58 ms; sweep width: 0.15 mT. Briefly, MDA-MB-231, SkBr3, MCF10A or MDA-MB-436 cells were treated ±MitoQ for 48 h, harvested and resuspended in PBS at 2×10^6 cells/mL. The experimental mixture was prepared with cell suspension, 1 mM DTPA and 150 μM MitoTEMPO-H. It was then aspirated into a gas-permeable polytetrafluoroethylene (PTFE) tubing that was placed in a quartz tube opened at both ends. The tube was directly inserted inside the EPR cavity that was heated at 310° K with air during all experiments. […] Net superoxide production was calculated by subtracting the double integration values of the […] with PEG-SOD2 to the control value at timepoint 15 min.

MDA-MB-231 cells [4] = assay: Cell cycle, flow cytometry with propidium iodide; type: cell-based, human; details: MitoQ 100 nM, 48 h
Procedure: Cells were seeded in 6-well plates at a density of 500,000 cells/well and allowed to adhere overnight. Cells were then starved in 0.1% FBS medium for 24 h and treated for 48 h±MitoQ. Afterwards, they were detached with trypsin-EDTA (0.05%) (Gibco®, cat #25300054) and centrifuged at 1,200 rpm for 5 min. Culture medium was discarded, and the pellets washed. Cells were fixed by adding 700 μL of ice-cold ethanol 100% in 300 μL of cell suspension in PBS. Cells were then washed twice with 1 mL of Tris buffer with 0.2% (v/v) Triton X-100, and finally resuspended in 300 μL of PBS with RNase (0.2 mg/mL) and propidium iodide (5 μg/mL). At least 10^4 events were acquired using a FACSCalibur™ flow cytometer (Becton Dickinson®), and the FlowJo cell cycle analysis tool was used to analyze data according to DNA content.

[5] = system: MCF10A normal breast epithelial cells; assay: Mitochondrial superoxide, EPR with MitoTEMPO-H ±PEG-SOD2; type: cell-based, human; details: MitoQ 100 nM, 48 h
Procedure: as §2

In the case of COC1=C(OC)C(=O)C(CCCCCCCCCC[P+](c2ccccc2)(c2ccccc2)c2ccccc2)=C(C)C1=O [MitoQ], the “breast cancer cell migration in the presence of cisplatin” value (MDA-MB-231 cells [1]) is reported as “repressed”, the DXR-stimulated cell migration (MCF7 cells) is reported as “inhibited” and the DXR-stimulated cell migration (4T1 cells; 0.1 μg/mL DXR + 100 nM MitoQ) is reported as “inhibited”. The “breast cancer cell migration in the presence of cisplatin” value (4T1 cells; indicated doses of cisplatin + 100 nM MitoQ) was “repressed”, the “protein expression of Vimentin, SNAI1, SNAI2 (SLUG), ZEB1 and TWIST1” value (MDA-MB-436 cells) was “decrease” and the DXR-induced cell killing [2] was “did not interfere”. For the same compound, the “mitochondrial superoxide and mitochondrial H2O2 production” value [3] was “lower”, the cell cycle (MDA-MB-231 cells [4]) was “not altered” and the mitochondrial superoxide production [5] was “not affected”.
